Columns and labels:
TNF = assay: PBMC assay: TNF cytokine levels in LPS-stimulated human PBMCs (MSD); format: cell-based; conditions: 100 ng/ml LPS for 6 hrs, TNF in supernatant via MSD
Procedure: (§1) Peripheral venous blood was collected from healthy individuals and human peripheral blood mononuclear cells (PBMCs) were isolated from blood by Ficoll-Histopaque (Sigma-Aldrich, A0561) density gradient centrifugation. After isolation, PBMCs were stored in liquid nitrogen for later use. Upon thawing, PBMC cell viability was determined in growth medium (RPMI media supplemented with 10% fetal bovine serum, 1% Pen-Strep and 1% L-glutamine). Compounds were spotted in a 1:3 serial dilution in DMSO and diluted to the final concentration in 30 μl medium in 96 well plates (Falcon, 353072). PBMCs were added at a density of 7.5×10^4 cells per well and incubated for 30 min in a 5% CO2 incubator at 37° C. LPS stimulation was performed by addition of 100 ng/ml LPS (final concentration, Invivogen, tlrl-smlps) for 6 hrs followed by collection of cellular supernatant and the analysis of IL-1β (μM) and TNF cytokines levels (μM) via MSD technology according to manufacturers' guidelines (MSD, K151A0H).
The IC50 values (for IL-1β) and EC50 values (TNF) were obtained on compounds of the invention/examples, and are depicted in the following table: […]

NLRP3 inflammasome = assay: PBMC assay: IL-1β in LPS-stimulated human PBMCs (MSD); format: cell-based; conditions: human PBMCs, 100 ng/ml LPS for 6 hrs, IL-1β in supernatant via MSD, read-out: IL1β IC50
Procedure: The activity of a compound according to the present invention can be assessed by in vitro methods.
as §1, with “Compounds were spotted in a 1:3 serial dilution in DMSO and diluted to the final concentration in 30 μl medium in 96 well plates (Falcon, 353072).” left out

Structure (SMILES) | EC50 (TNF) | IC50 (NLRP3 inflammasome)
CC(C)c1nn(CC(=O)Nc2ccc(=O)n(C)n2)c(=O)c2cc(C3CC3)nn12 [Final Cpd 81] | > 10000 nM | 160 nM
CC(C)c1nn(CC(=O)Nc2ccc3ncnn3c2)c(=O)c2cc(C3CC3)nn12 [Final Cpd 82] | > 10000 nM | 280 nM
CC(C)c1nn(CC(=O)Nc2cc(C(F)(F)F)ncn2)c(=O)c2cc(C3CC3)nn12 [Final Cpd 83] | > 10000 nM | > 10000 nM
Cc1nnc2n1CC(NC(=O)Cn1nc(C(C)C)n3nc(C4CC4)cc3c1=O)CC2 (centres unmarked) [Final Cpd 84] | > 10000 nM | 630 nM
CC(C)c1nn(CC(=O)Nc2cc(C(F)F)[nH]n2)c(=O)c2cc(C3CC3)nn12 [Final Cpd 85] | > 10000 nM | 340 nM
CC(C)c1nn(CC(=O)Nc2ccc(C3CC3)nn2)c(=O)c2cc(C3CC3)nn12 [Final Cpd 86] | > 10000 nM | > 10000 nM
CC(C)c1nn(CC(=O)Nc2ccc3cncn3c2)c(=O)c2cc(C3CC3)nn12 [Final Cpd 87] | 6170 nM | 63 nM
CC(C)c1nn(CC(=O)NC2CC(C(C)(C)O)C2)c(=O)c2cc(C3CC3)nn12 (centres unmarked) [Final Cpd 88] | > 10000 nM | 1290 nM
Cc1nc2ccc(NC(=O)Cn3nc(C(C)C)n4nc(C5CC5)cc4c3=O)cn2n1 [Final Cpd 89] | > 10000 nM | 230 nM
CC(C)c1nn(CC(=O)Nc2ccn3ccnc3c2)c(=O)c2cc(C3CC3)nn12 [Final Cpd 90] | > 10000 nM | 390 nM
CC(C)c1nn(CC(=O)Nc2ccc3nccn3c2)c(=O)c2cc(C3CC3)nn12 [Final Cpd 91] | > 10000 nM | 310 nM
CC(C)c1nn(CC(=O)Nc2ccc3nnc(C(F)F)n3c2)c(=O)c2cc(C3CC3)nn12 [Final Cpd 92] | > 10000 nM | 920 nM
CC(C)c1nn(CC(=O)Nc2ccn3cnnc3c2)c(=O)c2cc(C3CC3)nn12 [Final Cpd 93] | > 10000 nM | 1510 nM
Cc1nnc2cc(NC(=O)Cn3nc(C(C)C)n4nc(C5CC5)cc4c3=O)ccn12 [Final Cpd 94] | > 10000 nM | 2340 nM
CC(C)c1nn(CC(=O)Nc2cc(Br)c3nncn3c2)c(=O)c2cc(C3CC3)nn12 [Final Cpd 95] | > 10000 nM | 370 nM
CC(C)c1nn(CC(=O)Nc2ccncc2F)c(=O)c2cc(C3CC3)nn12 [Final Cpd 96] | > 10000 nM | 240 nM
Cc1nccc(NC(=O)Cn2nc(C(C)C)n3nc(C4CC4)cc3c2=O)c1F [Final Cpd 97] | > 10000 nM | 200 nM
CC(C)c1nn(CC(=O)Nc2nccc(C(F)(F)F)n2)c(=O)c2cc(C3CC3)nn12 [Final Cpd 98] | > 10000 nM | > 10000 nM
CC(C)c1nn(CC(=O)Nc2ccc3nc(C#N)cn3c2)c(=O)c2cc(C3CC3)nn12 [Final Cpd 99] | > 10000 nM | 490 nM
CC(C)c1nn(CC(=O)Nc2ccc3ncoc3c2)c(=O)c2cc(C3CC3)nn12 [Final Cpd 100] | > 10000 nM | 310 nM
CC(C)c1nn(CC(=O)Nc2cnc3ccnn3c2)c(=O)c2cc(C3CC3)nn12 [Final Cpd 101] | > 10000 nM | 7750 nM
COc1c(NC(=O)Cn2nc(C(C)C)n3nc(C4CC4)cc3c2=O)ccnc1C [Final Cpd 102] | > 10000 nM | 520 nM
CC(C)c1nn(CC(=O)Nc2ccn3ncnc3c2)c(=O)c2cc(C3CC3)nn12 [Final Cpd 103] | > 10000 nM | 560 nM
Cc1cc(NC(=O)Cn2nc(C(C)C)n3nc(C4CC4)cc3c2=O)c(C)cn1 [Final Cpd 104] | > 10000 nM | 1620 nM
CC(C)c1nn(CC(=O)Nc2ccc3nc(C(F)F)cn3c2)c(=O)c2cc(C3CC3)nn12 [Final Cpd 105] | > 10000 nM | 180 nM

Structure (SMILES) | EC50 (TNF) | IC50 (NLRP3 inflammasome)
COc1ncccc1NC(=O)Cn1nc(C(C)C)n2nc(C3CC3)cc2c1=O [Final Cpd 106] | > 10000 nM | 710 nM
COc1ncc(NC(=O)Cn2nc(C(C)C)n3nc(C4CC4)cc3c2=O)cn1 [Final Cpd 107] | > 10000 nM | 4230 nM
CC(C)c1nn(CC(=O)Nc2ccc3c(C#N)ncn3c2)c(=O)c2cc(C3CC3)nn12 [Final Cpd 108] | > 10000 nM | 540 nM
CC(C)c1nn(CC(=O)Nc2cccnc2Cl)c(=O)c2cc(C3CC3)nn12 [Final Cpd 109] | > 10000 nM | 1080 nM
CC(C)c1nn(CC(=O)Nc2ccc(Cl)nc2)c(=O)c2cc(C3CC3)nn12 [Final Cpd 110] | > 10000 nM | 590 nM
COc1ccc(NC(=O)Cn2nc(C(C)C)n3nc(C4CC4)cc3c2=O)cn1 [Final Cpd 111] | > 10000 nM | 830 nM
CC(C)c1nn(CC(=O)Nc2cncc(F)c2)c(=O)c2cc(C3CC3)nn12 [Final Cpd 112] | > 10000 nM | 880 nM
Cc1ncccc1NC(=O)Cn1nc(C(C)C)n2nc(C3CC3)cc2c1=O [Final Cpd 113] | > 10000 nM | 850 nM
Cc1cn2nc(NC(=O)Cn3nc(C(C)C)n4nc(C5CC5)cc4c3=O)ccc2n1 [Final Cpd 114] | > 10000 nM | 350 nM
CC(C)c1nn(CC(=O)Nc2cncnc2)c(=O)c2cc(C3CC3)nn12 [Final Cpd 115] | > 10000 nM | 1720 nM
CC(C)c1nn(CC(=O)Nc2ccc(C(F)F)nc2)c(=O)c2cc(C3CC3)nn12 [Final Cpd 116] | > 10000 nM | 1230 nM
CC(C)c1nn(CC(=O)Nc2cncc(Cl)c2)c(=O)c2cc(C3CC3)nn12 [Final Cpd 117] | > 10000 nM | 1410 nM
CC(C)c1nn(CC(=O)Nc2ccncc2)c(=O)c2cc(C3CC3)nn12 [Final Cpd 118] | > 10000 nM | 110 nM
CC(C)c1nn(CC(=O)Nc2cccnc2)c(=O)c2cc(C3CC3)nn12 [Final Cpd 119] | > 10000 nM | 520 nM
Cc1nccc(NC(=O)Cn2nc(C(C)C)n3nc(C4CC4)cc3c2=O)c1Cl [Final Cpd 120] | > 10000 nM | 550 nM
COc1cncc(NC(=O)Cn2nc(C(C)C)n3nc(C4CC4)cc3c2=O)c1 [Final Cpd 121] | > 10000 nM | 3060 nM
Cc1ccc(NC(=O)Cn2nc(C(C)C)n3nc(C4CC4)cc3c2=O)cn1 [Final Cpd 122] | > 10000 nM | 820 nM
CC(C)c1nn(CC(=O)Nc2ccnc(N(C)C)c2)c(=O)c2cc(C3CC3)nn12 [Final Cpd 123] | > 10000 nM | 1040 nM
Cc1c(NC(=O)Cn2nc(C(C)C)n3nc(C4CC4)cc3c2=O)ccnc1Cl [Final Cpd 124] | > 10000 nM | 610 nM
COc1ccncc1NC(=O)Cn1nc(C(C)C)n2nc(C3CC3)cc2c1=O [Final Cpd 125] | > 10000 nM | 9370 nM
CC(C)c1nn(CC(=O)Nc2ccc3cn[nH]c3c2)c(=O)c2cc(C3CC3)nn12 [Final Cpd 126] | > 10000 nM | 70 nM
Cc1cc(NC(=O)Cn2nc(C(C)C)n3nc(C4CC4)cc3c2=O)ccn1 [Final Cpd 127] | > 10000 nM | 180 nM
CC(C)c1nn(CC(=O)Nc2ccc3cnnn3c2)c(=O)c2cc(C3CC3)nn12 [Final Cpd 128] | > 10000 nM | 2550 nM
COc1cc(NC(=O)Cn2nc(C(C)C)n3nc(C4CC4)cc3c2=O)ccn1 [Final Cpd 129] | > 10000 nM | 670 nM

Reference: patent US20230203044A1, “PYRAZOLO[1,5-D][1,2,4]TRIAZINE-5(4H)-ACETAMIDES AS INHIBITORS OF THE NLRP3 INFLAMMASOME” (JANSSEN PHARMACEUTICA NV, priority 2020, published 2023)
